Laboratory results reported in US20190302102A1, “COMBINATION THERAPIES FOR TREATING BIPOLAR DISORDER, AND METHODS FOR USING THE SAME” (PsychNostics, LLC, priority 2016, published 2019).

Columns and labels:
[1] = system: whole blood cells from BD patients; assay: MPR™ (Membrane Potential Ratio) test, agents added to the test buffer in vitro; type: cell-based, human; conditions: 1 mM Li alone in EtOH test buffer, whole blood of BD patients
Protocol: The present inventor developed a ratiometric assay to measure the ratio of the membrane potential called Membrane Potential Ratio (MPR™), using a reference buffer and a test buffer. […] The reference buffer may contain NaCl, CaCl2 and glucose at physiological concentrations. The buffering agent HEPES was also added to the buffer to maintain the pH. […] The test buffer may contain K^+ or no K^+. The membrane potentials were measured in both the buffers and the ratio of the MP in the test buffer to the MP in the reference buffer was designated the “Membrane Potential Ratio” (MPR™).
The membrane potentials of whole blood cells can be measured using two different buffers in a plate reader. The mean MPR™ value is the ratio between the membrane potential of a patient's cells in the test buffer as the numerator and that in the reference buffer as the denominator (for example, determined by statistical analysis of multiple measurements, using the ANOVA and the multiple statistical regression analysis).
As mentioned herein, MPR™ is the ratio between the membrane potential (MP) in the test buffer and that in the reference buffer. In these experiments, the reference buffer contained NaCl, CaCl2, glucose and HEPES, whereas the test buffer contained ethyl alcohol (EtOH) in addition to NaCl, CaCl2, glucose and HEPES. Lithium, inositol and carbachol were added to the test buffer in these experiments.
Whole blood samples were obtained from BD patients, and a portion from each blood sample was suspended in the test buffer for 20 minutes, and a portion from each blood sample was suspended in the reference buffer for 20 minutes. After this incubation, the samples were centrifuged for five minutes, drained, then re-suspended in their respective buffer (test or reference buffer). These samples were then distributed in 96 well plates, and tested in a plate reader (FLx 800 manufactured by BioTek).

BD patients = conditions: cited from earlier work
[2] = blood plasma; Freudenreich et al. 2009; cited from earlier work
BD patient = assay: Clinical case observation of tolerability (Example 4); type: in vivo, human; conditions: very low dosage, given for anxiety; person with BD
Source text: At the time of their first blood draw, they reported having been off of their medications for BD for one month, but had not become clinically symptomatic, and tested in the BD range (“(Before)” of FIG. 4). When retested, they had been taking lithium, quetiapine, and mirtazapine for some time and had been back at work. […] Subsequently, they reported anxiety, occurring while they continued taking lithium, quetiapine, and mirtazapine. They thought they might be experiencing a return of bipolar symptomatology, but this was determined to possibly be situational instead. They had some awareness of issues with their fiancé and this awareness was “bolstered” by the notion that their MPR™ test had been in the normal range on their medication regimen not so many months before. […] They wanted a medication to help their through what they were experiencing, but could not be given benzodiazepines because of a history of difficulty with alcohol. Very low dosage perphenazine was given, in keeping with its old indication for neurotic anxiety.

## [Li] [Li, lithium]
[1]; Example 1, FIG. 1
  MPR™ value: 0.814
[1]; Example 2, FIG. 2
  MPR™ value: 0.757
[1]; Example 3, FIG. 3
  MPR™ value: 0.780
BD patients; at therapeutic concentration of 1.2 mM
  side effects at the therapeutic level: nausea, diarrhea, dizziness, muscle weakness, fatigue, and a dazed feeling
BD patients; lithium level in BD therapy
  therapeutic level: around 1.2 mM
  toxic level: about 2 mM

## CN1CCN(C2=Nc3cc(Cl)ccc3Nc3ccccc32)CC1 [clozapine]
[2]
  presently used therapeutic levels: 200 to 1000 ng/mL

## OCCN1CCN(CCCN2c3ccccc3Sc3ccc(Cl)cc32)CC1 [perphenazine]
BD patient
  Side effect leading to discontinuation: blurred vision
